Measurements from patent publication US20240116946A1 (Gilead Sciences, Inc., priority 2022, published 2024).
Read-outs that look alike come from different tables or passages of the source.

Experiments:
SARS-CoV-2-NLuc = test: microbe, parasite or virus in culture; type: cell-based, SARS Coronavirus 2
[1] = target: recombinant SARS-CoV-2 Main protease (Mpro) (Severe acute respiratory syndrome coronavirus 2 (2019-nCoV) (SARS-CoV-2), UniProt P0DTD1); test: Cov Mpro Biochemical IC50 Assay
[2] = Severe acute respiratory syndrome coronavirus, 48 h, read-out: MPro EC50
[3] = recombinant SARS-CoV-2 Mpro 7.5 nM, fluorogenic peptide substrate 40 μM, read-out: MPro IC50
[4] = Severe acute respiratory syndrome coronavirus, 48 h; read-out: MPro EC50
[5] = recombinant SARS-CoV-2 Mpro, fluorogenic peptide substrate, read-out: MPro IC50

SMILES | EC50 (SARS-CoV-2-NLuc; [2]) | IC50 [1, 3] | further results
Cn1ncc2cncc(-n3c(=O)c4sc(-c5cc(Cl)ccc5C#N)cc4n(CCC#N)c3=O)c21 [Example 774] | 19.4 nM | 6.33 nM | 
N#Cc1ccccc1-c1nc2[nH]c(=O)n(-c3cncc4ccccc34)c(=O)c2s1 [Example 118, 2-(6-(isoquinolin-4-yl)-5,7-dioxo-4,5,6,7-tetrahydrothiazolo[4,5-d]pyrimidin-2-yl)benzonitrile] |  |  | EC50 (SARS-CoV-2-NLuc; [4]): 11700 nM; IC50 [1, 5]: 290 nM
Cc1nc(COc2cccc(Cl)c2-c2ccc3c(=O)n(-c4cncc5ccccc45)c(=O)[nH]c3c2)co1 [Example 87] | 203 nM |  | IC50 [1, 5]: 172 nM
COc1cc(-c2cc3[nH]c(=O)n(-c4cncc5cc(C#N)sc45)c(=O)c3s2)c(Cl)cc1F [Example 1011, 7-[6-(2-chloro-4-fluoro-5-methoxy-phenyl)-2,4-dioxo-1H-thieno[3,2-d]pyrimidin-3-yl]thieno[3,2-c]pyridine-2-carbonitrile] | 81.2 nM | 14.5 nM | 
COc1cnc(Cl)c(-c2cc3[nH]c(=O)n(-c4cncc5ccccc45)c(=O)c3s2)c1 (single isomer, unassigned) [Example 628, 6-(2-chloro-5-methoxypyridin-3-yl)-3-(isoquinolin-4-yl)thieno[3,2-d]pyrimidine-2,4(1H,3H)-dione] |  | 3.26 nM | EC50 (SARS-CoV-2-NLuc; read-out: MPro EC50): 15.9 nM
O=c1[nH]c2cc(-c3ccccc3Cl)sc2c(=O)n1-c1cncc(C2CCC2)c1 [Example 379] |  |  | EC50 (SARS-CoV-2-NLuc; [4]): 186 nM; IC50 [1, 5]: 436 nM
O=c1[nH]c2cc(-c3c(Cl)cccc3-c3ccnc(C4CC4)c3)ccc2c(=O)n1-c1cncc2ccccc12 [Example 318] | < 3.42 nM |  | IC50 [1, 5]: 8.65 nM
O=c1[nH]c2cc(-c3ccccc3Cl)sc2c(=O)n1-c1cncc2cccc(Cl)c12 [Example 600] | 18.1 nM | 5.29 nM | 
COc1ccc(C#N)c(-c2cc3[nH]c(=O)n(-c4cncc5ccc(N6CCOCC6)cc45)c(=O)c3s2)c1 [Example 433] | 69.5 nM | 7.8 nM | 
COc1cc(-c2cc3[nH]c(=O)n(-c4cncc5cnn(C)c45)c(=O)c3s2)c(Cl)cc1F [Example 505, 6-(2-chloro-4-fluoro-5-methoxyphenyl)-3-(1-methyl-1H-pyrazolo[4,3-c]pyridin-7-yl)thieno[3,2-d]pyrimidine-2,4(1H,3H)-dione] | 9.97 nM | 5.45 nM | 
COc1ccc(C#N)c(-c2cc3[nH]c(=O)n(-c4cncc5ccccc45)c(=O)c3s2)c1 (single isomer, unassigned) [Example 555, 2-(3-(isoquinolin-4-yl)-2,4-dioxo-1,2,3,4-tetrahydrothieno[3,2-d]pyrimidin-6-yl)-4-methoxybenzonitrile] |  | 21.5 nM | EC50 (SARS-CoV-2-NLuc; read-out: MPro EC50): 79.6 nM
COc1cc(-c2cc3[nH]c(=O)n(-c4cncc5ccsc45)c(=O)c3s2)c(Cl)cc1F [Example 482] | 4.44 nM | < 2.54 nM | 
COc1cc(-c2cc3[nH]c(=O)n(-c4cncc5ccccc45)c(=O)c3s2)c(C)cc1Cl [Example 716] | 18.7 nM | 15.9 nM | 
O=c1[nH]c2cc(-c3ccccc3Cl)sc2c(=O)n1-c1cncc2ccc(N3CC(F)(F)OC(F)(F)C3)cc12 [Example 228] | 73.1 nM |  | IC50 [1, 5]: 294 nM
COc1ccc(Cl)c(-c2cc3[nH]c(=O)n(-c4cncc5ncsc45)c(=O)c3s2)c1 [Example 486] |  | 5.9 nM | EC50 (SARS-CoV-2-NLuc; read-out: MPro EC50): 29.4 nM
COc1cc(-c2cc(OC)c3c(=O)n(-c4cncc5ccccc45)c(=O)[nH]c3c2)c(C#N)cc1F [Example 680] |  | 21.7 nM | EC50 (SARS-CoV-2-NLuc; read-out: MPro EC50): 20.8 nM
COc1cc(-c2cc3[nH]c(=O)n(-c4cnnc(C)c4)c(=O)c3s2)c(Cl)cc1F [Example 714] | > 1000 nM | > 1000 nM | 
Cc1cnc(F)c(-n2c(=O)c3sc(-c4ccccc4Cl)cc3n(CCC#N)c2=O)c1 [Example 771] |  | 3.68 nM | EC50 (SARS-CoV-2-NLuc; [4]): 6.03 nM
COc1ccc(Cl)c(-c2cc3[nH]c(=O)n(-c4cncc(C)c4OCC(F)(F)F)c(=O)c3s2)c1 [Example 373] |  |  | EC50 (SARS-CoV-2-NLuc; [4]): 46.9 nM; IC50 [1, 5]: 14.6 nM

SMILES | EC50 (SARS-CoV-2-NLuc; [2]) | IC50 [1, 3] | further results
O=c1[nH]c2cc(-c3cccc(Cl)c3Cl)ccc2c(=O)n1-c1cncc2ccccc12 [Example 59] | 6010 nM |  | IC50 [1, 5]: > 100000 nM
O=c1[nH]c2cc(-c3c(Cl)cccc3-c3cncc(F)c3)ccc2c(=O)n1-c1cncc2ccccc12 [Example 207] | 13.6 nM |  | IC50 [1, 5]: 17.6 nM
Cc1cc(-c2cccc(Cl)c2-c2ccc3c(=O)n(-c4cncc5ccccc45)c(=O)[nH]c3c2)ccn1 [Example 331] | 17 nM |  | IC50 [1, 5]: 10.4 nM
COc1cc(-c2cc3[nH]c(=O)n(-c4cncc5cccnc45)c(=O)c3s2)c(Cl)cc1F [Example 553, 6-(2-chloro-4-fluoro-5-methoxy-phenyl)-3-(1,6-naphthyridin-8-yl)-1H-thieno[3,2-d]pyrimidine-2,4-dione] | 12 nM | 7.58 nM | 
Cc1csc2cncc(-n3c(=O)[nH]c4cc(-c5c(Cl)cccc5-c5cncc(C#N)c5)sc4c3=O)c12 [Example 674] | 2.82 nM | 3.85 nM | 
COc1cc(-c2cc3[nH]c(=O)n(-c4cncc5cnn(C)c45)c(=O)c3s2)c(Cl)cc1F (single isomer, unassigned) [Example 639, 6-(2-chloro-4-fluoro-5-methoxy-phenyl)-3-(1-methylpyrazolo[4,3-c]pyridin-7-yl)-1H-thieno[3,2-d]pyrimidine-2,4-dione] |  | 114 nM | EC50 (SARS-CoV-2-NLuc; read-out: MPro EC50): 173 nM
COc1ccc(C#N)c(-c2cc3[nH]c(=O)n(-c4cncc5sccc45)c(=O)c3s2)c1 [Example 608] | < 4.97 nM | < 2.54 nM | 
COc1cc(-c2cc3c(s2)c(=O)n(-c2cncc4nc(C)n(C)c24)c(=O)n3CC2(C#N)CC2)c(Cl)cc1F [Example 707] | 8.9 nM | 2.13 nM | 
Cn1cnc(COc2ccc(Cl)c(-c3ccc4c(=O)n(-c5cncc6ccccc56)c(=O)[nH]c4c3)c2)n1 [Example 90] | 886 nM |  | IC50 [1, 5]: 487 nM
COc1ccc(Cl)c(-c2ccc3c(=O)n(-c4cncc5ccc(N6CC[C@H](OC)C6)cc45)c(=O)[nH]c3c2)c1 [Example 409] | 77.4 nM | 15.7 nM | 
COc1cc(-c2cc3[nH]c(=O)n(-c4cncc5cccc(Cl)c45)c(=O)c3s2)c(Cl)cc1F [Example 1078] |  | 8.83 nM | EC50 (SARS-CoV-2-NLuc; [4]): 9.65 nM
COc1ccc(-c2cc3[nH]c(=O)n(-c4cncc5ccccc45)c(=O)c3s2)c(Cl)c1 [Example 722] | 68.8 nM | 34 nM | 
COc1ccc(Cl)c(-c2cc3[nH]c(=O)n(-c4cncc5ccc(N6CCOCC6)cc45)c(=O)c3s2)c1 [Example 432] |  | 6.99 nM | EC50 (SARS-CoV-2-NLuc; [4]): 6.37 nM
CC(C)(C)c1cncc(-n2c(=O)[nH]c3cc(-c4ccccc4Cl)ccc3c2=O)c1 [Example 579] |  | > 50000 nM | EC50 (SARS-CoV-2-NLuc; [4]): 42600 nM
COc1cc(Cl)c(-c2ccc3c(=O)n(-c4cncc5ccccc45)c(=O)[nH]c3c2)cc1OC [Example 255] | 332 nM |  | IC50 [1, 5]: 307 nM
Cc1noc(C)c1-c1ccc2c(=O)n(-c3cncc4ccccc34)c(=O)[nH]c2c1 [Example 44] |  |  | EC50 (SARS-CoV-2-NLuc; [4]): 3000 nM; IC50 ([1]; MPro IC50, recombinant SARS-CoV-2 Mpro, fluorogenic peptide substrate): 1370 nM
Cn1ncc2cncc(-n3c(=O)c4sc(-c5ccccc5Cl)cc4n(CCC#N)c3=O)c21 [Example 781] | 4.81 nM | 5.06 nM | 
CC1(C)Cc2c(-c3cccc(Cl)c3-c3cc4[nH]c(=O)n(-c5cncc6ccccc56)c(=O)c4s3)cnn2C1 [Example 524] | 5.95 nM | 7.83 nM | 
